Columns and labels:
[1] = target: T1, recombinant human cIAP1-BIR3 protein (Homo sapiens, UniProt Q13490); assay: Recombinant human c-IAP1-BIR3 biochemical assay (HTRF, peptide displacement); conditions: 1.2 nM cIAP1-BIR3, 3 nM AbuRPF-K(5-Fam)-NH2 peptide, read-out: Protein binding IC50 (nM) c-IAP1
T1 construct: recombinant human cIAP1-BIR3 protein; purchased Reaction biology APT-11-370
Method in brief: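 1.2 nM cIAP1-BIR3 preincubated 1 h at room temperature with compound (10 points, 4-fold, top 10 uM) in 20 mM HEPES pH 7.5, 50 mM NaCl, 1 mM DTT; 3 nM AbuRPF-K(5-Fam)-NH2 then added for 1 h, then anti-6His Tb cryptate for 1 h. 520/490 nm ratio; IC50 by four-parameter logistic fit.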

[2] = target: T2, recombinant human XIAP-BIR3 protein (Homo sapiens, UniProt P98170); assay: Recombinant human XIAP-BIR3 biochemical assay (HTRF, peptide displacement); conditions: 3.7 nM XIAP-BIR3, 7.6 nM AbuRPF-K(5-Fam)-NH2 peptide, read-out: Protein binding IC50 (nM) XIAP
T2 construct: recombinant human XIAP-BIR3 protein; purchased Reaction biology APT-11-374
T2 sequence (P98170 241-356 limits assumed): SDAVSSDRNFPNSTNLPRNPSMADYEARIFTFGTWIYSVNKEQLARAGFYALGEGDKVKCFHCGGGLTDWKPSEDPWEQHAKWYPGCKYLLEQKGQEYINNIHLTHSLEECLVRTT
Method in brief: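 3.7 nM His-tagged XIAP-BIR3 was preincubated 1 h RT with compound (top 10 µM, 4-fold, 10 points) in 20 mM HEPES pH 7.5, 50 mM NaCl, 0.005% Tween-20, 1 mM DTT. 7.6 nM AbuRPF-K(5-Fam)-NH2 peptide was then added, followed by anti-6His Tb cryptate, 1 h each. HTRF 520/490 nm ratio; four-parameter logistic IC50.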

[3] = target: T3, recombinant human cIAP2-BIR3 protein (Homo sapiens, UniProt Q13489); assay: Recombinant human c-IAP2-BIR3 biochemical assay (HTRF, peptide displacement); conditions: 3.7 nM cIAP2-BIR3, 3.7 nM AbuRPF-K(5-Fam)-NH2 peptide, read-out: Protein binding IC50 (nM) c-IAP2
T3 construct: recombinant human cIAP2-BIR3 protein; purchased Reaction biology APT-11-372
T3 sequence (Q13489 238-349 limits assumed): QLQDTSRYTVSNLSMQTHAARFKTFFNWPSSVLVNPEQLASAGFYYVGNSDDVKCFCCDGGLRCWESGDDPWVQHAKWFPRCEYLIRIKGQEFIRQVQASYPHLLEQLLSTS
Method in brief: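 3.7 nM protein pre-incubated 1 h at room temperature with compounds (top 10 uM, 4-fold, 10 points) in 20 mM HEPES pH 7.5, 50 mM NaCl, 0.005% Tween-20, 1 mM DTT. Then 3.7 nM AbuRPF-K(5-Fam)-NH2 for 1 h, then anti-6His Tb cryptate 1 h. IC50 from 520/490 nm HTRF ratio, four-parameter logistic fit.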

T1 sequence (Q13490 253-363 limits assumed): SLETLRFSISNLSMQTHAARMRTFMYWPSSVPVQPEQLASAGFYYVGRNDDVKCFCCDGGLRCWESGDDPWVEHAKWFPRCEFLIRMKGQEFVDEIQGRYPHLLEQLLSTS

Row | Compound | IC50 [1] | IC50 [2] | IC50 [3]
1 | C[C@@H]1CN(CC(=O)N2c3cc(Cc4ccc(F)cc4)c(CO)nc3OC[C@@H]2C)[C@@H](CN2C3CCC2COC3)CN1 [Compound 86] | 0.89 nM | 15 nM | 0.95 nM
2 | C[C@@H]1CN(CC(=O)N2c3cc(Cc4ccc(F)cc4)c(C(=O)NCCN4CCOCC4)nc3OC[C@@H]2C)C(CN2[C@H](C)COC[C@H]2C)CN1 (stereo partly drawn) [Example 75, (5)-1-(2-((2R,5R)-2-(((3R,5R)-3,5-dimethylmorpholino)methyl)-5-methylpiperazin-1-yl)acetyl)-7-(4-fluorobenzyl)-2-methyl-N-(2-morpholinoethyl)-2,3-dihydro-1H-pyrido[2,3-b][1,4]oxazine-6-carboxamide] | 0.2 nM | 6.5 nM | 0.54 nM
3 | C[C@@H]1CN(CC(=O)N2CCOc3ncc(Cc4ccc(F)cc4)cc32)[C@@H](CN2C[C@@H]3C[C@H]2CO3)CN1 [Compound 13, 2-((2R,5R)-2-(((1S,45)-2-oxa-5-azabicyclo[2.2.1]heptan-5-yl)methyl)-5-methylpiperazin-1-yl)-1-(7-(4-fluorobenzyl)-2,3-dihydro-1H-pyrido[2,3-b][1,4]oxazin-1-yl)ethan-1-one] | 1.02 nM | 24 nM | 1.5 nM
4 | C[C@@H]1CN(CC(=O)N2c3cc(Cc4ccc(F)cc4)c(C(=O)NCCO)nc3OC[C@@H]2C)[C@@H](CN2[C@H](C)COC[C@H]2C)CN1 [Example 73, (S)-1-(2-((2R,5R)-2-(((3R,5R)-3,5-dimethylmorpholino)methyl)-5-methylpiperazin-1-yl)acetyl)-7-(4-fluorobenzyl)-N-(2-hydroxyethyl)-2-methyl-2,3-dihydro-1H-pyrido[2,3-b][1,4]oxazine-6-carboxamide] | 0.18 nM | 4.3 nM | 0.29 nM
5 | C[C@@H]1CN(CC(=O)N2c3cc(Cc4ccc(F)cc4)c(C(=O)N4CCN(C)CC4)nc3OC[C@@H]2C)[C@@H](CN2[C@H](C)COC[C@H]2C)CN1 [Compound 104] | 0.26 nM | 18.1 nM | 0.83 nM

Continued by falling IC50 [1], values first:

Row | IC50 [1] | IC50 [2] | IC50 [3] | Compound
6 | 0.36 nM | 11.9 nM | 0.75 nM | C[C@@H]1CN(CC(=O)N2c3cc(Cc4ccc(F)cc4)c(NC4CC4)nc3OC[C@@H]2C)[C@@H](CN2[C@H](C)COC[C@H]2C)CN1 [Compound 110]
7 | 0.26 nM | 49 nM | 0.83 nM | CC(C)OC[C@H]1COc2ncc(Cc3ccc(F)cc3)cc2N1C(=O)CN1C[C@@H](C)NC[C@@H]1CN1CCOC[C@H]1C [Compound 38, 1-((S)-7-(4-fluorobenzyl)-2-(isopropoxymethyl)-2,3-dihydro-1H-pyrido[2,3-b][1,4]oxazin-1-yl)-2-((2R,5R)-5-methyl-2-(((R)-3-methylmorpholino)methyl)piperazin-1-yl)ethan-1-one]
8 | 0.18 nM | 3.3 nM | 0.23 nM | CCOc1nc2c(cc1Cc1ccc(F)cc1)N(C(=O)CN1C[C@@H](C)NC[C@@H]1CN1[C@H](C)COC[C@H]1C)[C@@H](C)CO2 [Compound 87]
9 | 0.15 nM | 4.4 nM | 0.28 nM | C[C@@H]1CN(CC(=O)N2c3cc(Cc4ccc(F)cc4)c(C(=O)NC4CCOCC4)nc3OC[C@@H]2C)[C@@H](CN2[C@H](C)COC[C@H]2C)CN1 [Example 76, (S)-1-(2-((2R,5R)-2-(((3R,5R)-3,5-dimethylmorpholino)methyl)-5-methylpiperazin-1-yl)acetyl)-7-(4-fluorobenzyl)-2-methyl-N-(tetrahydro-2H-pyran-4-yl)-2,3-dihydro-1H-pyrido[2,3-b][1,4]oxazine-6-carboxamide]
